Measured values from ChEMBL document CHEMBL1811782, “The 2010 Philip S. Portoghese Medicinal Chemistry Lectureship: addressing the "core issue" in the design of estrogen receptor ligands” (J Med Chem, 2011).

Tests used:
[1] = Relative binding affinity to estrogen receptor relative to estradiol
[2] = target: T1, Estrogen receptor (Homo sapiens) (UniProt P03372); test: Ratio of estradiol IC50 to compound IC50 for ERalpha receptor by relative binding affinity assay
T1 sequence (whole entry): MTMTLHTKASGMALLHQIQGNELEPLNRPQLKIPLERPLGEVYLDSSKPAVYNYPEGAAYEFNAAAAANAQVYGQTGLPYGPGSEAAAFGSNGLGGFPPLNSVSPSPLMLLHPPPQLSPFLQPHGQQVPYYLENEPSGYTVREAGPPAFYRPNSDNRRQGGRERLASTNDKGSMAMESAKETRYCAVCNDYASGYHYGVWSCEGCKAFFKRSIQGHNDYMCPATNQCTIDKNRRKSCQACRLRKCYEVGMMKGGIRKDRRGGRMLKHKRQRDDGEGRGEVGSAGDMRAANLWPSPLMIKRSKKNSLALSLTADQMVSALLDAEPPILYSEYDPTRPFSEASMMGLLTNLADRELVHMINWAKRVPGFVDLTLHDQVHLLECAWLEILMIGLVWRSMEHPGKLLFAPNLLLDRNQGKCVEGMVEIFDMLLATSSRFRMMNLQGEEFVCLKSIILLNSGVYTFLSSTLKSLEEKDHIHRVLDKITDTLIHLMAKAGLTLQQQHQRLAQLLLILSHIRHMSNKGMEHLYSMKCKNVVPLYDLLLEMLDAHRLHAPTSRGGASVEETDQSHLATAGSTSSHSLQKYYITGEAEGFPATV

[3] = target: Estrogen receptor beta (Homo sapiens) (UniProt Q92731); test: Ratio of estradiol IC50 to compound IC50 for ERbeta receptor by relative binding affinity assay
Sequence of Estrogen receptor beta (Homo sapiens) (Q92731 whole entry): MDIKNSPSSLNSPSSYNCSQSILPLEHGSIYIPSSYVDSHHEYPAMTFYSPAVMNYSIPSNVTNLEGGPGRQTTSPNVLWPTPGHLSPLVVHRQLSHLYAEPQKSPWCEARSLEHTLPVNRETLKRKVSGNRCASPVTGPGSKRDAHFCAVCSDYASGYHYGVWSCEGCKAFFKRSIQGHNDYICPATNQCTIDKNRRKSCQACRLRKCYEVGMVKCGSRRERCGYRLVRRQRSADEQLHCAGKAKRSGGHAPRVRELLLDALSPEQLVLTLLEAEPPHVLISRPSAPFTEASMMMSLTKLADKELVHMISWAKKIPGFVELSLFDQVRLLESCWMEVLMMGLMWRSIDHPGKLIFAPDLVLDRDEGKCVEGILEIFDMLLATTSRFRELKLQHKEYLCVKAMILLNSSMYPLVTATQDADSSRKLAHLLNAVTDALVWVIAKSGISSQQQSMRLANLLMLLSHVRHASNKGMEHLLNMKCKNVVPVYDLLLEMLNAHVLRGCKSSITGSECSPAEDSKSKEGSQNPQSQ

Row | RBA [1] [%] | Ratio IC50 [2] | Ratio IC50 [3] | SMILES
1 | 0.009 |  |  | Oc1ccc(-c2cc(-c3ccc(O)cc3)[nH]n2)cc1
2 |  | 1.3 | 3.1 | Cc1cc(C)c(B(c2c(C)cc(C)cc2C)N(C)c2ccc(O)cc2)c(C)c1
3 | 0.02 |  |  | CCc1c(-c2ccc(O)cc2)n[nH]c1-c1ccc(O)cc1
4 |  | 1.3 | 1.1 | CCN(B(c1c(C)cc(C)cc1C)c1c(C)cc(C)cc1C)c1ccc(O)cc1
5 |  | 0.013 | 0.18 | Cc1cc(C)c(B(Nc2ccc(O)cc2)c2c(C)cc(C)cc2C)c(C)c1
6 | 0.37 |  |  | CCc1c(-c2ccc(O)cc2)nc(-c2ccccc2)n1-c1ccc(O)cc1
7 | 19 |  |  | CCc1c(-c2ccc(O)cc2)nn(-c2ccc(O)cc2)c1-c1ccc(O)cc1
8 | 0.25 |  |  | CCn1c(-c2ccc(O)cc2)nc(-c2ccccc2)c1-c1ccc(O)cc1
9 |  | 2.2 | 1.3 | Cc1cc(C)c(B(c2c(C)cc(C)cc2C)N(CC(F)(F)F)c2ccc(O)cc2)c(C)c1
10 |  | 10 | 5.8 | Cc1cccc(C)c1B(c1c(C)cccc1C)N(CC(F)(F)F)c1ccc(O)cc1
11 | 14 |  |  | CCc1c(-c2ccc(O)cc2)nn(-c2ccccc2)c1-c1ccc(O)cc1
12 | 0.03 |  |  | Oc1ccc(-c2cc(-c3ccc(O)cc3)n(-c3ccccc3)n2)cc1
13 |  | 23 | 16 | Cc1cccc(C)c1B(c1c(C)cccc1C)N(C)c1ccc(O)cc1
14 |  | 0.16 | 0.12 | CCCCCN(B(c1c(C)cc(C)cc1C)c1c(C)cc(C)cc1C)c1ccc(O)cc1
15 | 0.38 |  |  | CCn1c(-c2ccc(O)cc2)nc(-c2ccc(O)cc2)c1-c1ccc(O)cc1
